Assay results reported in patent US20240271102A1, “METHODS FOR ENGINEERING AND USE OF CILIATED ORGANOIDS HAVING NATIVE-LIKE, APICAL-OUT POLARITY” (Carnegie Mellon University, priority 2021, published 2024).
Values belong to the molecule of their own block, whether it stands above or below them.

How the values were obtained:
Format in all cases: cell-based, human
[1] = system: apical-out airway organoids (AOAOs); experiment: AOAO rotation / angular velocity of […]-embedded organoids (computer vision tracking)
Protocol: © embedding of AOAOs: Mature AOAOs at day-21 to day-28 of differentiation were collected together and embedded in […]® matrices. For […]® embedding, collected AOAOs were resuspended in 40% (vol/vol) GFR-[…]® in differentiation medium, which was kept on a heat plate set to 37° C. for 10 minutes to enable effective gelation. Upon matrix gelation, differentiation medium was added to the top of the AOAO-containing gel matrices. All matrix-embedded AOAOs were maintained at 37° C. with 5% CO2. The next day, 30-second video recordings of AOAOs were captured using EVOS FL Auto 2 Imaging System. […] The distance covered by each correspondence was measured and converted to the rotational velocity (Sun et al., in 2010 IEEE Computer Society Conference on Computer Vision and Pattern Recognition, 2432-2439, 2010). […] The difference in rotational and angular velocity was quantified by calculating the mean normalized deviation of velocity (rotational and angular) from the mean (FIG. 19E) using the following equation: Treating AOAOs with Paclitaxel or EHNA for angular velocity analysis: Mature AOAOs (day-21 to day-28 of differentiation) were embedded in […]® for two days before treatment with desired chemical inhibitors of cilia motility. […]

[2] = system: apical-out airway organoids (AOAOs); experiment: Cilia beating frequency (CBF) by kymograph analysis
Protocol: Imaging the AOAO cilia beating for kymographs generation and cilia beating frequency (CBF) calculation: Mature AOAOs (day-21 to day-28 of differentiation) were transferred to a 1.5-mL Eppendorf tube and kept on ice. Cold collagen type 1 was neutralized with the neutralization solution, added to the organoids at a final concentration of 2 mg/mL, and the entire AOAO-collagen mixture was transferred to the glass bottom region of a MatTek dish. The MatTek dish containing organoids in collagen was kept on ice for additional 10 minutes until the organoids settled down to the bottom of the dish. The MatTek dish was then placed on a heat plate set to 37° C. for 10 minutes. 1 mL of differentiation medium was placed in the dish before capturing video recording of cilia beating using on a Zeiss AxioObserver Z1 microscope with a 100×, 1.45 NA objective and pco.edge 5.5 camera. The high-speed video recordings of cilia beating were preprocessed using the previously described method to smoothen noise and variations in contrast. Additionally, the Contrast Limited Adaptive Histogram Equalization (CLAHE) function in Python v. […] The normal vector with respect to the organoid surface for each region of interest was calculated. […] The peaks in the kymograph were counted and divided by the duration of the video to obtain the CBF value for the organoid. […]

[3] = system: NHBE cells; experiment: Spheroid formation of NHBEs on U-bottom cell repellent surface; conditions: 10 μM Y27632 in differentiation medium at initial seeding, day 1
Protocol: Mucociliary differentiation of NHBEs with apical-out polarity was then carried out. Once the cells reached about 75% confluency, the medium was aspirated and cells were rinsed once with DPBS. Trypsin-EDTA (0.25%) was added and incubated at 37° C. After all the cells had lifted, complete RPMI medium was added to neutralize the trypsin. The cell suspension was transferred into a 15 mL centrifuge tube, which was then centrifuged at 220×g for 5 minutes at room temperature. The cell pellet was resuspended to a cell density of 5000 cells/mL in differentiation medium containing 10 μM of Y27632. Aliquots (100 μL) of the cell suspension were then transferred to each well of a 96-well cell-repellent microplate. 50 μL of the media were pipetted out from each well and replaced with fresh differentiation medium every other day. Apical-out organoid formation was examined with different starting NHBE cell numbers (1000, 500, 200, 100, 50, and 20 cells per well) on a 96-well U-bottom cell repellent surface. Studies also were conducted to test whether the addition of 10 μM Y27632 into the differentiation medium for initial seeding improved cell viability and spheroid formation (FIGS. 3A-3F and 4A-4F). […] It is noted that in other experiments, however, a density of 1000 cells per well did support favorable spheroid formation.

[4] = system: apical-out airway organoids (AOAOs); experiment: MUC5AC goblet cell immunofluorescence staining of apical-out airway organoids
Protocol: Differentiation of airway basal cells into apical-out airway organoids: Human ABSCs (P2) were trypsinized and resuspended (5000 cells/ml) in differentiation medium ([…]™-ALI Medium) supplemented with 10 μM Y27632. 100 μL of resuspended hABSCs were placed per well in a 96-well cell-repellent microplate (GreinerBio-One, 655970). The cultures were maintained at 37° C. with 5% CO2 for 21-28 days. […]

Molecule: CCCCCC[C@@H]([C@@H](C)O)n1cnc2c(N)ncnc21 (racemic) [EHNA, erythro-9-(2-hydroxy-3-nonyl)adenine]
change in organoid angular velocity ([1]; EHNA 0, 0.1, 0.3 and 1 mM, 2 hours, mature AOAOs): dose-dependent reduction in organoid angular velocity
cilia beating frequency (CBF) ([2]; 1 mM EHNA, 2 hours): inhibitory effect

Molecule: C[C@@H](N)[C@H]1CC[C@H](C(=O)Nc2ccncc2)CC1 [Y27632]
spheroid formation with versus without Y27632 [3]: no significant differences

cilia beating frequency (CBF) ([2]; paclitaxel 20 μM, 24 hours): dramatically reduced CBF
Molecule: CC(=O)O[C@H]1C(=O)[C@@]2(C)[C@H]([C@H](OC(=O)c3ccccc3)[C@]3(O)C[C@H](OC(=O)[C@H](O)[C@@H](NC(=O)c4ccccc4)c4ccccc4)C(C)=C1C3(C)C)[C@]1(OC(C)=O)CO[C@@H]1C[C@@H]2O [paclitaxel, Paclitaxel]
organoid angular velocity over time ([1]; paclitaxel 20 μM, monitored periodically for 24 hours): progressive reduction of organoid angular velocity

Molecule: IL-13: pro-inflammatory cytokine interleukin-13
goblet cells (MUC5AC+) in Day 21 AOAOs ([4]; IL-13 5 ng/mL in differentiation medium during the entire differentiation): massive induction of goblet cells
goblet cells (MUC5AC expression) ([4]; IL-13 at concentration as low as 1 ng/mL): exhibited goblet cells
